In patent publication US20150210669A1, “COMPOUND FOR THE TREATMENT OF TUMOURS AND TUMOUR METASTASES” (SIENA BIOTECH S.P.A., priority 2010, published 2015):

How the values were obtained:
[1] = system: Hh pathway; assay: alkaline phosphatase-based assay of Hh pathway inactivation; format: cell-based; conditions: alkaline phosphatase-based assay described in WO2009074300
Experimental: The level of inactivation of the Hh pathway resulting from this binding was determined using the alkaline phosphatase-based assay described in WO2009074300, resulting in an IC50 value below 30 nM.

[2] = molecular target: Smo receptor (Homo sapiens, UniProt Q99835); assay: competitive binding assay displacing fluorescently-labeled Bodipy-Cyclopamine; conditions: displacement of Bodipy-Cyclopamine; assay described in WO2009074300; read-out: Ki, binding affinity with the Smo receptor
Smo receptor, sequence (Q99835 28-787): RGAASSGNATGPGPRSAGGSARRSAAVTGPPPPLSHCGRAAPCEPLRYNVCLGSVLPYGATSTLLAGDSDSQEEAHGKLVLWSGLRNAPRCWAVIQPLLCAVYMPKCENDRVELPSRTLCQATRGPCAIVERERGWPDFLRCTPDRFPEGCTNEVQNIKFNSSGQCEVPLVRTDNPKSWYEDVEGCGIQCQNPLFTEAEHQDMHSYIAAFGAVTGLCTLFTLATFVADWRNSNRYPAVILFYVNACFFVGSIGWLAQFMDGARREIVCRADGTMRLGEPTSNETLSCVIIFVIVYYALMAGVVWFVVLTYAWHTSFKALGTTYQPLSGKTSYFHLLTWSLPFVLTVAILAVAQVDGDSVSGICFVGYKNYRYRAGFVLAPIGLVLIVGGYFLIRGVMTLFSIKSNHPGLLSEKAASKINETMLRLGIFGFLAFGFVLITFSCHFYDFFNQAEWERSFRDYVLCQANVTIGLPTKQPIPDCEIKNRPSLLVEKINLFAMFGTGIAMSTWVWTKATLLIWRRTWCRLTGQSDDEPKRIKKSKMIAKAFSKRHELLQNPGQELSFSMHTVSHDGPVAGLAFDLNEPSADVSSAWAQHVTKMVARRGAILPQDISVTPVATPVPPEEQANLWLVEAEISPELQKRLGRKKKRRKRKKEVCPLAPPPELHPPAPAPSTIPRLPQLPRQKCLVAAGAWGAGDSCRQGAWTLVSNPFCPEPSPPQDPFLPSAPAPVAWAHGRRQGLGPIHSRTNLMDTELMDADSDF

In the case of `Cc1ccc(-c2cc(N3CCC(C(=O)N4CCN(C)CC4)CC3)ccc2Cl)nc1` [Compound C, {1-[4-Chloro-3-(5-methyl-pyridin-2-yl)-phenyl]-piperidin-4-yl}-(4-methyl-piperazin-1-yl)-methanone], the IC50 [1] is reported as < 30 nM and the Ki [2] is reported as < 100 nM.
